Columns and labels:
NAD+ [1] = test: Increasing the level of NAD+ by controlled-release NR microspheres 4, 7, 8, blood NAD+ by HPLC (Example 12); assay type: in vivo; settings: SD rats, intragastric; for Content of NAD+ in blood: 100 mg/kg NR and/or 10 mg/kg apigenin
Description: (§1) 28 SD rats weighing about 200 g were purchased, and an experiment was carried out after one week of adaptive feeding. The 28 rats were divided into 7 groups, 4 rats per group (half male and half female). The rats in group 1 were not treated, the rats in group 2 were administered intragastrically with 100 mg/kg of NR, the rats in group 3 were administered intragastrically with 10 mg/kg of apigenin, the rats in group 4 were administered intragastrically with 100 mg/kg of NR and 10 mg/kg of apigenin at the same time, the rats in group 5 were administered intragastrically with the controlled-release NR microspheres 4 containing 100 mg/kg of NR and 10 mg/kg of apigenin, the rats in group 6 were administered intragastrically with the controlled-release NR microspheres 7 containing 100 mg/kg of NR and 10 mg/kg of apigenin, and the rats in group 7 were administered intragastrically with the controlled-release NR microspheres 8 containing 100 mg/kg of NR and 10 mg/kg of apigenin.
Blood was collected from each rat in the groups via the tail vein at time points of 2 h, 2.5 h, 3 h, 3.5 h, 4 h, 4.5 h, 5 h, 5.5 h, and 6 h, respectively, after intragastric administration of corresponding microspheres, and 0.1 mL of blood was collected each time by each rat. After the vein blood collected from the rat in each groups at each time point was treated, the NAD+ level in the blood sample was tested by high performance liquid chromatography (HPLC). The test results of 4 rats in each group were averaged. […] There are time differences between a peak of the releasing of apigenin and a peak of the releasing of NR in the controlled-release […], the controlled-release NR microsphere 7, and the controlled-release NR microsphere 8 that are prepared based on different ratios of apigenin (the CD38 inhibitor) to NR, and the time differences between a peak of the releasing of apigenin and a peak of the releasing of NR in the three microspheres are consistent and are all 0.5-1.5 h.

NAD+ [2] = test: Increasing the level of NAD+ by controlled-release NR microspheres 4, 11, 12, blood NAD+ by HPLC (Example 18); assay type: in vivo; settings: SD rats, intragastric; for NAD+ level in blood: 100 mg/kg NR and/or 10 mg/kg apigenin
Description: as §1, with “of apigenin,” for “of apigenin at the same time,”, “microspheres 2” for “microspheres 4”, “microspheres 11” for “microspheres 7”, “microspheres 12” for “microspheres 8”
Blood was collected from rat the in each groups via the tail vein at time points of 2 h, 2.5 h, 3 h, 3.5 h, 4 h, 4.5 h, 5 h, 5.5 h, and 6 h, respectively, after intragastric administration of corresponding microspheres, and 0.1 mL of blood was collected each time by each rat. After the vein blood collected from each rat in the groups at each time point was treated, the NAD+ level in the blood sample was tested by high performance liquid chromatography (HPLC). The test results of 4 rats in each group were averaged. […] There are time differences between a peak of the releasing of apigenin and a peak of the releasing NR in the controlled-release NR microsphere 4, the controlled-release NR microsphere 11, and the controlled-release NR microsphere 12 that are prepared based on different mass ratios of apigenin (the CD38 inhibitor) to the excipient and different mass ratios of NR to the excipient, and the time differences between a peak of the releasing of apigenin and a peak of the releasing NR in the three microspheres are consistent and are all about 0.5 h to 1.5 h.

NAD+ [3] = test: Increasing the level of NAD+ by controlled-release NR microsphere 4, blood NAD+ by HPLC (Example 6); assay type: in vivo; settings: SD rats, intragastric; for NAD+ level in blood: 100 mg/kg NR and/or 10 mg/kg apigenin
Description: as §1, with “20” for “28”, “5” for “7”, “time, and” for “time,”, “of” for “of apigenin, the rats in group 6 were administered intragastrically with the controlled-release NR microspheres 7 containing 100 mg/kg of NR and 10 mg/kg of apigenin, and the rats in group 7 were administered intragastrically with the controlled-release NR microspheres 8 containing 100 mg/kg of NR and 10 mg/kg of”
Blood was collected from the rat in each groups via the tail vein at time points of 2 h, 2.5 h, 3 h, 3.5 h, 4 h, 4.5 h, 5 h, 5.5 h, and 6 h, respectively, after intragastric administration of corresponding microspheres, and 0.1 mL of blood was collected each time by each rat. After the vein blood collected from each rat at each time point was treated, the NAD+ level in the blood sample was tested by high performance liquid chromatography (HPLC). The test results of 4 rats in each group were averaged.

[4] = in vivo; cited from earlier work

SMILES | level of NAD+ in the rat compared with the blank group (in words) (NAD+ [1]) | Content of NAD+ in blood (NAD+ [1]; 2 h) [µM] | Content of NAD+ in blood (NAD+ [1]; 2.5 h) [µM] | Content of NAD+ in blood (NAD+ [1]; 3 h) [µM] | Content of NAD+ in blood (NAD+ [1]; 3.5 h) [µM] | Content of NAD+ in blood (NAD+ [1]; 4 h) [µM] | Content of NAD+ in blood (NAD+ [1]; 4.5 h) [µM] | Content of NAD+ in blood (NAD+ [1]; 5 h) [µM] | Content of NAD+ in blood (NAD+ [1]; 5.5 h) [µM] | Content of NAD+ in blood (NAD+ [1]; 6 h) [µM] | level of NAD+ in the rat compared with the blank group (in words) (NAD+ [2]) | NAD+ level in blood (NAD+ [2]; 2 h) [µM] | NAD+ level in blood (NAD+ [2]; 2.5 h) [µM] | NAD+ level in blood (NAD+ [2]; 3 h) [µM] | NAD+ level in blood (NAD+ [2]; 3.5 h) [µM] | NAD+ level in blood (NAD+ [2]; 4 h) [µM] | NAD+ level in blood (NAD+ [2]; 4.5 h) [µM] | NAD+ level in blood (NAD+ [2]; 5 h) [µM] | NAD+ level in blood (NAD+ [2]; 5.5 h) [µM] | NAD+ level in blood (NAD+ [2]; 6 h) [µM] | further results
NC(=O)c1ccc[n+]([C@@H]2O[C@H](CO)[C@@H](O)[C@H]2O)c1 [NR, nicotinamide riboside] | can increase the level of NAD+ in the rat | 128 | 200 | 180 | 159 | 162 | 157 | 149 | 142 | 134 | can increase the level of NAD+ in the rat | 142 | 203 | 188 | 154 | 167 | 152 | 145 | 144 | 135 | level of NAD+ in the rat compared with the blank group (in words) (NAD+ [3]): can increase the level of NAD+ in the rat; NAD+ level in blood (NAD+ [3]; 2 h): 131 µM; NAD+ level in blood (NAD+ [3]; 2.5 h): 196 µM; NAD+ level in blood (NAD+ [3]; 3 h): 181 µM; NAD+ level in blood (NAD+ [3]; 3.5 h): 163 µM; NAD+ level in blood (NAD+ [3]; 4 h): 142 µM; NAD+ level in blood (NAD+ [3]; 4.5 h): 154 µM; NAD+ level in blood (NAD+ [3]; 5 h): 159 µM; NAD+ level in blood (NAD+ [3]; 5.5 h): 139 µM; NAD+ level in blood (NAD+ [3]; 6 h): 141 µM
O=c1cc(-c2ccc(O)cc2)oc2cc(O)cc(O)c12 [Apigenin, apigenin] | can increase the level of NAD+ in the rat | 144 | 153 | 184 | 175 | 163 | 159 | 146 | 139 | 141 | can increase the level of NAD+ in the rat | 132 | 150 | 179 | 173 | 161 | 157 | 166 | 138 | 140 | Metabolic half-life [4]: 91.8 h; level of NAD+ in the rat compared with the blank group (in words) (NAD+ [3]): can increase the level of NAD+ in the rat; NAD+ level in blood (NAD+ [3]; 2 h): 141 µM; NAD+ level in blood (NAD+ [3]; 2.5 h): 148 µM; NAD+ level in blood (NAD+ [3]; 3 h): 176 µM; NAD+ level in blood (NAD+ [3]; 3.5 h): 171 µM; NAD+ level in blood (NAD+ [3]; 4 h): 160 µM; NAD+ level in blood (NAD+ [3]; 4.5 h): 156 µM; NAD+ level in blood (NAD+ [3]; 5 h): 143 µM; NAD+ level in blood (NAD+ [3]; 5.5 h): 144 µM; NAD+ level in blood (NAD+ [3]; 6 h): 138 µM

From US20240139147A1, “METHOD FOR IMPROVING BIOAVAILABILITY OF NAD+ DERIVATIVES” (HOBOOMLIFE BIO-TECHNOLOGY (SHENZHEN) CO., LTD., priority 2022, published 2024)
